Source: BindingDB's records for doi:10.1021/ml300172p (2012)
pIC50: −log10 of the molar value.

Experiment: Inhibition of human Shh-induced mouse C3H10T1/2 cell differentiation after 48 hrs by alkaline phosphatase reporter assay

First: O=C(C[C@@H]1C/C=C/CCC(=O)O[C@H](c2ccccc2)CNC1=O)NCc1ccc(Cl)cc1 [N-(4-chlorobenzyl)-2-((2R,6S,E)-5,12-dioxo-2-phenyl-1-oxa-4-azacyclododec-8-en-6-yl)acetamide]
Second: CC1=C2C[C@H]3[C@@H](CC=C4C[C@@H](O)CC[C@@]43C)[C@@H]2CC[C@]12O[C@@H]1C[C@H](C)CN[C@H]1[C@H]2C
The pIC50 of the first is lower: less than 4.60 for the first, 6.22 for the second.

Experiment: Inhibition of Smo in mouse C3H10T1/2 cells assessed as inhibition of human Shh-induced cell differentiation after 48 hrs by alkaline phosphatase reporter assay

Going from `CC(C)(C)OC(=O)C[C@@H]1C/C=C/CCC(=O)N[C@H](c2ccccc2)COC1=O` to `C[C@@H]1C/C=C/CCC(=O)N[C@H](c2ccccc2)COC1=O`, the pIC50 falls from 5.15 to less than 4.60.

`C[C@H]1[C@@H](c2ccccc2)OC(=O)CCCCC[C@@H](CC(=O)NCc2ccc(Cl)cc2)C(=O)N1C` and `C[C@H]1[C@@H](c2ccccc2)OC(=O)CC/C=C/C[C@@H](CC(=O)NCc2ccc(Cl)cc2)C(=O)N1C` are within 0.2 log units of each other in pIC50: 4.96 for the first, 5.10 for the second.

Going from `O=C(C[C@@H]1C/C=C/CCC(=O)N[C@H](c2ccc(Cl)cc2)COC1=O)NCc1ccc(Cl)cc1` to `O=C(C[C@@H]1C/C=C/CCC(=O)N[C@H](c2ccc(F)cc2)COC1=O)NCc1ccc(Cl)cc1`, the pIC50 falls from 6.22 to 5.30 (0.92 log units). The first is the more potent here.

`O=C(C[C@@H]1C/C=C/CCC(=O)N[C@H](Cc2ccccc2)COC1=O)NCc1ccc(Cl)cc1` and `O=C(C[C@@H]1C/C=C/CCC(=O)N[C@H](c2ccccc2)COC1=O)NCc1ccc(Cl)cc1` are within 0.2 log units of each other in pIC50: 5.40 for the first, 5.30 for the second.

First: CC(=O)N[C@@H]1C/C=C/CCC(=O)N[C@H](c2ccccc2)COC1=O
Second: O=C(C[C@@H]1C/C=C/CCC(=O)N[C@@H](c2ccccc2)COC1=O)NCc1ccc(Cl)cc1
The pIC50 of the first is lower: less than 4.60 for the first, 4.70 for the second.

`C[C@H]1NC(=O)[C@H](CC(=O)NCc2ccc(Cl)cc2)C/C=C/CCC(=O)O[C@@H]1c1ccccc1` and `C[C@@H]1NC(=O)[C@H](CC(=O)NCc2ccc(Cl)cc2)C/C=C/CCC(=O)O[C@@H]1c1ccccc1` are within 0.2 log units of each other in pIC50: 4.96 for the first, 4.82 for the second.

`O=C(C[C@@H]1C/C=C/C[C@H](Cc2ccccc2)C(=O)N[C@H](c2ccccc2)COC1=O)NCc1ccc(Cl)cc1` and `C[C@H]1C/C=C\C[C@@H](CC(=O)NCc2ccc(Cl)cc2)C(=O)OC[C@@H](c2ccccc2)NC1=O` are within 0.2 log units of each other in pIC50: 5.22 for the first, 5.40 for the second.

Compared with `CC(C)N[C@H]1C/C=C/C[C@@H](CC(=O)NCc2ccc(Cl)cc2)C(=O)NC[C@@H](c2ccccc2)OC1=O`, `C[C@H]1C/C=C/C[C@@H](CC(=O)NCc2ccc(Cl)cc2)C(=O)OC[C@@H](c2ccccc2)NC1=O` is higher in pIC50: less than 4.60 for the first, 5.10 for the second.

Going from `CN1C[C@@H](c2ccccc2)OC(=O)CC/C=C/C[C@@H](Cc2ccc(Cl)cc2)C1=O` to `O=C(C[C@@H]1C/C=C/CCC(=O)O[C@H](c2ccccc2)CNC1=O)NCc1cccc(Cl)c1`, the pIC50 rises from 5.10 to 5.30 (0.20 log units). The second is the more potent here.

`CCCC[C@@H]1COC(=O)[C@H](CC(=O)NCc2ccc(Cl)cc2)C/C=C/CCC(=O)N1` and `CC(C)[C@@H]1COC(=O)[C@H](CC(=O)NCc2ccc(Cl)cc2)C/C=C/CCC(=O)N1` cannot be ordered by pIC50: less than 5.00 for the first, 4.64 for the second.

Compared with `CN1CCN(C(=O)C[C@@H]2C/C=C/CCC(=O)O[C@H](c3ccccc3)CNC2=O)CC1`, `O=C(C[C@@H]1C/C=C/CCC(=O)O[C@H](c2ccccc2)CNC1=O)NCCCC(F)(F)F` is higher in pIC50: less than 4.60 for the first, 5.40 for the second. The second is the more potent here.

First: O=C(C[C@@H]1C/C=C/CCC(=O)N[C@@H]2c3ccccc3C[C@@H]2OC1=O)NCc1ccc(Cl)cc1
Second: O=C(C[C@@H]1C/C=C/CCC(=O)N[C@H](C2CCCCC2)COC1=O)NCc1ccc(Cl)cc1
The pIC50 of the first is lower: less than 4.60 for the first, 5.30 for the second. The second is the more potent here.

`O=C(CN1C/C=C/CCC(=O)N[C@H](c2ccccc2)COC1=O)NCc1ccc(Cl)cc1` and `O=C(C[C@@H]1C/C=C/CCC(=O)OCCNC1=O)NCc1ccc(Cl)cc1` [(S,E)-N-(4-chlorobenzyl)-2-(5,12-dioxo-1-oxa-4-azacyclododec-8-en-6-yl)acetamide] cannot be ordered by pIC50: less than 4.60 for the first, less than 4.60 for the second.

Going from `O=C(C[C@@H]1C/C=C/CCC(=O)OC[C@@H]2CCCN2C1=O)NCc1ccc(Cl)cc1` to `C=CCCC(=O)O[C@@H](CNC(=O)[C@@H](CC=C)CC(=O)NCc1ccc(Cl)cc1)c1ccccc1`, the pIC50 falls from 4.82 to less than 4.60. The first is the more potent here.
